Data from patent US20220090124A1, “HUMANIZED VIPR2 COPY NUMBER VARIANT TRANSGENIC MOUSE MODEL FOR ANTIPSYCHOTIC DRUG AND GENE THERAPY DISCOVERY FOR SCHIZOPHRENIA” (Board of Supervisors of Louisiana State University and …, priority 2019, published 2022).

Key:
human VPAC2 receptor = biological target: T1, human VPAC2 receptor (Homo sapiens, UniProt P41587); details: high-throughput screen of 1.67 million-compound collection, cell-based cAMP assay; cited from earlier work
T1 sequence (P41587 24-438): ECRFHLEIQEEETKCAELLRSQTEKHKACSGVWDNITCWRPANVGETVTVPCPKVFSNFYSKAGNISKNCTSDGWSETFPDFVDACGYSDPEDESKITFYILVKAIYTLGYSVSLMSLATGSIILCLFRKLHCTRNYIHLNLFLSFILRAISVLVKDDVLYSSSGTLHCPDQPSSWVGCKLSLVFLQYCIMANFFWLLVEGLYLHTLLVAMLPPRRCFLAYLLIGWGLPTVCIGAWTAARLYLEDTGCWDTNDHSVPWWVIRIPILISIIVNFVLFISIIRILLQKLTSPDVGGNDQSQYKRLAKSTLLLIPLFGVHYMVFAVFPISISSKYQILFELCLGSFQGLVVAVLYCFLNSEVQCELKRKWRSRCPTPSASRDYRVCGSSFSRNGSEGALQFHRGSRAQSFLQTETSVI

human VIPR2 receptor = biological target: T2, human VIPR2 receptor (Homo sapiens, UniProt P41587); assay: receptor block and downstream signaling in cell line expressing the human VIPR2 receptor; type: cell-based; details: cell line expressing the human VIPR2 receptor (cell line of VIPR2 CNV)
T2 construct: expressed in transfected cells; host or cells: cell line of VPIR2 CNV (not further described)
T2 sequence (P41587 24-438): T1 sequence (P41587 24-438)
Source text: Turning finally to FIG. 57, a small molecule VIPR2 antagonist, (2R,4S)-2-benzyl-4-hydroxy-N-((1S,2R)-2-hydroxy-2,3-dihydro-1H-inden-1-yl)-5-(4-nitrophenylsulfonamido) pentanamide, is shown. Another object of the present invention is to use the VIRP2 BAC Schizophrenia mouse model to identify VIPR2 receptor antagonist as an antipsychotic drug targeting cognitive and social deficits, or as disease-modifying therapy to prevent or slow/stop disease progression. Currently, the majority of VIPR2 agonist or antagonist are peptides. However, two properties of the peptide hormone are problematic from the perspective of therapeutic applications. First, they have a short half-life as a result of its rapid proteolysis. Second, most of these peptides are not specific and activate three broadly distributed receptors, VIPR1, VIPR2, and PAC1. A high-throughput screen on human VPAC2 receptor using a cell-based cAMP assay has identified a single confirmed antagonist hit from a 1.67 million-compound collection. This compound is the first specific small molecule antagonist for human VIPR2 receptor. The full name of the compound is (2R,4S)-2-benzyl-4-hydroxy-N-((1S,2R)-2-hydroxy-2,3-dihydro-1H-inden-1-yl)-5-(4-nitrophenylsulfonamido) pentanamide (FIG. 57). […] The inventors experimented with this hVIPR2 antagonist in the cell line of VPIR2 CNV. […]

hPAC1 = biological target: T3, hPAC1 (Homo sapiens, UniProt P41586); details: selectivity; cited from earlier work
T3 sequence (P41586 21-468): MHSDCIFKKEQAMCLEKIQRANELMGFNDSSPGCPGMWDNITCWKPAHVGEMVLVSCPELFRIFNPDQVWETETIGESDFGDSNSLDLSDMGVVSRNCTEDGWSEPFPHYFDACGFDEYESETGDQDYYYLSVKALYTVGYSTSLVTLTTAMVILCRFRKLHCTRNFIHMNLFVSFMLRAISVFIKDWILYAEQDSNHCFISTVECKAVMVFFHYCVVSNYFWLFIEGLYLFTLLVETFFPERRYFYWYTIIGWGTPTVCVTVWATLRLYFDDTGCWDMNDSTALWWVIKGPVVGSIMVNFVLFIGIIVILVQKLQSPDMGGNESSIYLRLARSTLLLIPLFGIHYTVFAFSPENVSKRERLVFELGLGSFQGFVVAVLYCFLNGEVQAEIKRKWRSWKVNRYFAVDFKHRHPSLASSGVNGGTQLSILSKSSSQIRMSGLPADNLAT

hVPAC1 = biological target: T4, hVPAC1 (Homo sapiens, UniProt P32241); details: selectivity; cited from earlier work
T4 sequence (P32241 31-457): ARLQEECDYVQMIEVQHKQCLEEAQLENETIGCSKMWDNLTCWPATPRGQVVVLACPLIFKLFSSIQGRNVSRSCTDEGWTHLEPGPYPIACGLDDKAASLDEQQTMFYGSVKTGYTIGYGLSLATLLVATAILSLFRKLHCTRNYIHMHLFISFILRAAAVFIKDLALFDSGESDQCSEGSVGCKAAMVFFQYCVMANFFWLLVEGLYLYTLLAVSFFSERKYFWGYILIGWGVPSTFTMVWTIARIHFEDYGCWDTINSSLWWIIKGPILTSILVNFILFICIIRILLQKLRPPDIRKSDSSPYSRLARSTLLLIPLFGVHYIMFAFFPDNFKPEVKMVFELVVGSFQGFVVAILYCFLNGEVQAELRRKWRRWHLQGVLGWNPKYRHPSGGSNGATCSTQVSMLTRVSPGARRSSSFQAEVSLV

mouse Vipr2 receptor = biological target: T5, mouse Vipr2 receptor (Mus musculus, UniProt P41588); details: species specificity; cited from earlier work
T5 sequence (P41588 23-437): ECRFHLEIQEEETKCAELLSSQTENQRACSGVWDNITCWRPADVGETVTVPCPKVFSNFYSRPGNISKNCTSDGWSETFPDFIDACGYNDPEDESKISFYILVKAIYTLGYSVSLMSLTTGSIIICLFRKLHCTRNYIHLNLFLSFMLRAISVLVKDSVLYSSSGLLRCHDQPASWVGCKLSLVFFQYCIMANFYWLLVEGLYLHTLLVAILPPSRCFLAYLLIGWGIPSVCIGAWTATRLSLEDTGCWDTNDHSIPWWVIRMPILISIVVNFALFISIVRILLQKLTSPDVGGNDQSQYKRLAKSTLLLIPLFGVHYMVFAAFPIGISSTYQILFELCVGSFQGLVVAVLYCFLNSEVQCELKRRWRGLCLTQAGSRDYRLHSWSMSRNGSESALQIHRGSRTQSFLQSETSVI

## O=C(N[C@H]1c2ccccc2C[C@H]1O)[C@H](Cc1ccccc1)C[C@H](O)CNS(=O)(=O)c1ccc([N+](=O)[O-])cc1 [(2R,4S)-2-benzyl-4-hydroxy-N-((1S,2R)-2-hydroxy-2,3-dihydro-1H-inden-1-yl)-5-(4-nitrophenylsulfonamido) pentanamide]
Human VPAC2 receptor
  antagonist activity on human VIPR2 receptor: selective human VIPR2 antagonist
Human VIPR2 receptor
  block of VIPR2 receptor and downstream signaling: blocks the VIPR2 receptor and the downstream signaling
hPAC1
  antagonism of hPAC1: does not antagonize
hVPAC1
  antagonism of hVPAC1: does not antagonize
Mouse Vipr2 receptor
  activity on the mouse Vipr2 receptor: completely lacks activity
